Experimental data reported in publication PMC9452538, “The antimicrobial peptide LI14 combats multidrug-resistant bacterial infections” (Communications Biology, 2022).
Values after ≈ are worked out from the molar mass of the structure shown. Bridge positions count the residues as written; N and C are the ends. Ends that are not written are not given here. Peptide text beside a SMILES is read from it.

What was measured:
MRSA T144 [1] = assay: microbe, parasite or virus in culture; assay type: cell-based, Staphylococcus aureus; parameters: Antibacterial activity of LI14 derivates: unit not given here; conditions: MRSA T144; unit not given
Description: (§1) An antimicrobial activity study was conducted on all peptides against a panel of laboratory bacteria, including ATCC source and clinical isolates with resistance determinants. According to CLSI2021 guidelines, we tested the minimum inhibitory concentrations (MICs) of peptides using standard broth micro-dilutions. Briefly, bacteria grown to exponential phase were diluted in 1:1000 to MHB, subsequently, equivalent amounts of bacterial suspension (1.5 × 10^6 CFUs/mL) were mixed with different concentrations of peptides in a sterilized 96-well microtiter plate (Corning).

S. aureus ATCC 29213 = assay: microbe, parasite or virus in culture; assay type: cell-based, Staphylococcus aureus; parameters: Antibacterial activity of LI14 derivates: unit not given here; conditions: S. aureus 29213; unit not given
Description: as §1

E. coli ATCC 25922 = assay: microbe, parasite or virus in culture; assay type: cell-based, Escherichia coli; parameters: Antibacterial activity of LI14 derivates: unit not given here; conditions: E. coli 25922; unit not given
Description: as §1

[2] = test system: E. coli B2 (blaNDM-5 + mcr-1); assay: microbe, parasite or virus in culture; assay type: cell-based, Escherichia coli; parameters: Antibacterial activity of LI14 derivates: unit not given here; conditions: E. coli B2; unit not given
Description: as §1

MRSA T144 [3] = assay: Checkerboard assay with LI14; assay type: cell-based, Staphylococcus aureus; conditions: for FIC index: antibiotic in combination with LI14, checkerboard; for MICa of antibiotic: in the absence of LI14; for MICb of antibiotic / Potentiation: in the presence of ¼ MIC of LI14
Description: (§2) Through checkerboard assay using two-fold serially diluted drugs (8 × 8 matrix), we evaluated the synergistic effects of LI14 with different mechanisms of antibiotics. The absorbance of cultures at 600 nm was determined by a Microplate reader after 18 h of incubation with (1.5 × 10^6 CFUs/mL) bacterial suspension. The FIC index (FICI) was calculated by performing two biological replicates for each combination. The formula is as follows: FIC index = FICIa + FICIb = MICab/MICa + MICba/Mb. An FIC index of ≤0.5 indicates synergy.
(§3) a/bMICs of antibiotics in the absence or presence of ¼ MIC of LI14.
(§4) cDegree of antibiotics potentiation in the presence of ¼ MIC of LI14.
(§5) –, none of potentiation activity.

[4] = test system: sensitive E. coli ATCC 25922; assay: Checkerboard assay with LI14; assay type: cell-based, Escherichia coli; conditions: for FIC index: antibiotic in combination with LI14, checkerboard; for MICa of antibiotic: in the absence of LI14; for MICb of antibiotic / Potentiation: in the presence of ¼ MIC of LI14
Description: as §2, §3, §4, §5

MDR E. coli B2 = assay: Checkerboard assay with LI14; assay type: cell-based, Escherichia coli; conditions: for FIC index: antibiotic in combination with LI14, checkerboard 8 × 8, 18 h, ≤0.5 = synergy; for Potentiation: antibiotic potentiation in the presence of ¼ MIC of LI14; for MICa of antibiotic: in the absence of LI14; for MICb of antibiotic: in the presence of ¼ MIC of LI14
Description: as §2, §3, §4, §5

MRSA T144 [5] = assay type: cell-based, Staphylococcus aureus; conditions: T144
Description: MRSA T144 and E. coli B2 in the exponential growth phase were incubated with LI14 peptide supplemented with 10 mM Na^+, K^+, Mg^2+, 10% Dulbecco’s modified Eagle medium (DMEM), and 10% fetal bovine serum (FBS) for 16–18 h. The stability of LI14 was evaluated by the change of its antibacterial activity under different conditions.
LI14 were preincubated for 1 h at various temperatures (40–121 °C), pH (2–12), and proteases (pepsin, trypsin, and papain, final concentration 1 mg/mL). […] Following the incubation with the proteases, the leftover protease was precipitated with acetonitrile and removed by centrifugation at 3000 × g, followed by a MIC test.
Supplementary Table 4 Thermal, pH, salts and protease stability of AMPs against
MRSA T144 and E. coli B2 (MIC, μg/mL).
Treatment MRSA T144 E. coli B2

MRSA T144 [6] = assay: Neutropenic mouse thigh infection model; assay type: in vivo, CD-1 mice; conditions: AMP 20 mg/kg i.p., 48 h
Description: Female CD-1 mice (n = 6 biologically independent animals per group) were first given cyclophosphamide (two consecutive injections of 150 and 100 mg kg^−1 at 4 and 1 day before infection) to construct neutropenia models. The mice’s right thighs were then injected with 100 μL MRSA T144 or E. coli B2 suspensions (10^5 CFUs per mouse). Post-infection of 1 h, 100 μL LI14 peptide (10 or 20 mg/kg), ampicillin/rifampicin (20 mg/kg) or a combination of LI14 with ampicillin/ rifampicin (10 + 20 mg/kg) were given by intraperitoneal injection. All mice were euthanized 48 h after drug administration, and right thigh muscle tissue was removed aseptically, homogenized, serially diluted, and plated on MHA to qualify bacterial loads after overnight incubation at 37 °C.

Row | Compound | Antibacterial activity of LI14 derivates (MRSA T144 [1]) | Antibacterial activity of LI14 derivates (S. aureus ATCC 29213) | Antibacterial activity of LI14 derivates (E. coli ATCC 25922) | Antibacterial activity of LI14 derivates [2] | other results
1 | LKKLCRALKKLCRI-NH2 [LI14-A7, Ala substitute of LI14, position 7] | 64 | 64 | 32 | 16 | –
2 | LKKLCRILKKLARI-NH2 [LI14-A12] | 16 | 8 | 2 | 4 | –
3 | LKKLCRILAKLCRI-NH2 [LI14-A9, Ala substitute of LI14, position 9] | 16 | 16 | 8-16 | 4 | –
4 | LKKLCRILKKLCRA-NH2 [LI14-A14, Ala substitute of LI14, position 14] | 32 | 16 | 16 | 4 | –
5 | LKALCRILKKLCRI-NH2 [LI14-A3, Ala substitute of LI14, position 3] | 8 | 8-16 | 16 | 8 | –
6 | LKKLCAILKKLCRI-NH2 [LI14-A6, Ala substitute of LI14, Arg at position 6] | > 128 | > 128 | 128 | 32 | –
7 | C[C@H]1c2cccc(O)c2C(=O)C2=C(O)[C@]3(O)C(=O)C(C(N)=O)=C(O)[C@@H](N(C)C)[C@@H]3[C@@H](O)[C@@H]21 [Doxycycline] | – | – | – | – | FIC index (MRSA T144 [3]): 0.188; MICa of antibiotic (MRSA T144 [3]): 16 µg/mL; MICb of antibiotic (MRSA T144 [3]): 1 µg/mL; Potentiation (MRSA T144 [3]): 16 fold; FIC index [4]: 0.25; MICa of antibiotic [4]: 0.5 µg/mL; MICb of antibiotic [4]: 0.063 µg/mL; Potentiation [4]: 8 fold; FIC index (MDR E. coli B2): 0.25; Potentiation (MDR E. coli B2): 8 fold; MICa of antibiotic (MDR E. coli B2): 32 µg/mL; MICb of antibiotic (MDR E. coli B2): 4 µg/mL
8 | CC[C@H](C)[C@H](NC(=O)[C@H](CCCNC(=N)N)NC(=O)[C@@H]1CSSC[C@H](NC(=O)[C@H](CC(C)C)NC(=O)[C@H](CCCCN)NC(=O)[C@H](CCCCN)NC(=O)[C@@H](N)CC(C)C)C(=O)N[C@@H](CCCNC(=N)N)C(=O)N[C@@H]([C@@H](C)CC)C(=O)N[C@@H](CC(C)C)C(=O)N[C@@H](CCCCN)C(=O)N[C@@H](CCCCN)C(=O)N[C@@H](CC(C)C)C(=O)N1)C(N)=O [LI14 (S-S)] (H-LKKLCRILKKLCRI-NH2; disulfide 5-12 (inferred)) | 4 | 4 | 8 | 4 | MIC (MRSA T144 [5]): 4 µg/mL (≈ 2.32 µM)
9 | LAKLCRILKKLCRI-NH2 [LI14-A2, Ala substitute of LI14, position 2] | 16 | 8 | 8 | 4 | –
10 | LKKLCRIAKKLCRI-NH2 [LI14-A8, Ala substitute of LI14, position 8] | 64 | 128 | 16 | 8 | –
11 | CC1(C)S[C@@H]2[C@H](NC(=O)[C@H](N)c3ccccc3)C(=O)N2[C@H]1C(=O)O [Ampicillin] | – | – | – | – | Bacterial load in thigh (MRSA T144 [6]; animal 1): 7.62 Log10CFUs/thigh; Bacterial load in thigh (MRSA T144 [6]; animal 2): 7.65 Log10CFUs/thigh; Bacterial load in thigh (MRSA T144 [6]; animal 3): 8.00 Log10CFUs/thigh; Bacterial load in thigh (MRSA T144 [6]; animal 4): 8.03 Log10CFUs/thigh; Bacterial load in thigh (MRSA T144 [6]; animal 5): 7.34 Log10CFUs/thigh; Bacterial load in thigh (MRSA T144 [6]; animal 6): 7.15 Log10CFUs/thigh; FIC index (MRSA T144 [3]): 0.078; MICa of antibiotic (MRSA T144 [3]): 64 µg/mL; MICb of antibiotic (MRSA T144 [3]): 1 µg/mL; Potentiation (MRSA T144 [3]): 64 fold; FIC index (MDR E. coli B2): 2; MICa of antibiotic (MDR E. coli B2): > 128 µg/mL; MICb of antibiotic (MDR E. coli B2): > 128 µg/mL
12 | LKKACRILKKLCRI-NH2 [LI14-A4, Ala substitute of LI14, position 4] | 64 | 64 | 16-32 | 8 | –
13 | LKKLCRILKKLCAI-NH2 [LI14-A13, Ala substitute of LI14, position 13] | 16 | 16 | 8 | 4 | –
14 | CN[C@H](CC(C)C)C(=O)N[C@H]1C(=O)N[C@@H](CC(N)=O)C(=O)N[C@H]2C(=O)N[C@H]3C(=O)N[C@H](C(=O)N[C@H](C(=O)O)c4cc(O)cc(O)c4-c4cc3ccc4O)[C@H](O)c3ccc(c(Cl)c3)Oc3cc2cc(c3O[C@@H]2O[C@H](CO)[C@@H](O)[C@H](O)[C@H]2O[C@H]2C[C@](C)(N)[C@H](O)[C@H](C)O2)Oc2ccc(cc2Cl)[C@H]1O [Vancomycin] | – | – | – | – | FIC index (MRSA T144 [3]): 2.0; MICa of antibiotic (MRSA T144 [3]): 0.5 µg/mL; MICb of antibiotic (MRSA T144 [3]): 0.5 µg/mL; FIC index [4]: 0.375; MICa of antibiotic [4]: 64 µg/mL; MICb of antibiotic [4]: 8 µg/mL; Potentiation [4]: 8 fold; FIC index (MDR E. coli B2): 0.078; Potentiation (MDR E. coli B2): 64 fold; MICa of antibiotic (MDR E. coli B2): 128 µg/mL; MICb of antibiotic (MDR E. coli B2): 2 µg/mL
15 | LKKLARILKKLCRI-NH2 [LI14-A5] | 16 | 16 | 4 | 4 | –
16 | LKKLCRILKALCRI-NH2 [LI14-A10, Ala substitute of LI14, position 10] | 16 | 16-32 | 16-32 | 8 | –
17 | LKKLCRILKKACRI-NH2 [LI14-A11, Ala substitute of LI14, position 11] | 64 | 64 | 16 | 8 | –
18 | AKKLCRILKKLCRI-NH2 [LI14-A1, Ala substitute of LI14, position 1] | 64 | 16 | 16 | 4 | –
